Assay results: patent US20180118801A1, “COMPOSITIONS AND METHODS FOR DIAGNOSING AND TREATING AUTOIMMUNE DISEASES” (THE REGENTS OF THE UNIVERSITY OF COLORADO, a body corporate, priority 2015, published 2018)
“Also recorded” adds a separate entry of the source.

How the values were obtained:
Assay in all cases: T cell antigen assay, IFN-gamma ELISA response of T cell clone
Format in all cases: cell-based, NOD mouse
[1] = tested on: T cell clone BDC-6.9; conditions: for T cell recognition/activation by HIP sequence (IFN-gamma response): BDC-6.9 (same TCR as BDC-9.3); for IFN-gamma T cell response to peptides: BDC-6.9, synthetic peptides
Method: (§1) The antigenicity of biochemical fractions, peptides, or reaction mixtures was assessed through the IFN-y responses of T-cell clones. In 96-well microtiter plates, assay cultures contained 2×10^4 responder T cells, 2.5×10^4 NOD peritoneal exudate cells as antigen-presenting cells, and -cell antigen. ELISA (BD Biosciences) was used to determine IFN-gamma production by the responder T cells. Aliquots of cell extracts (β-Mem) were used as positive controls throughout the experiments. Test wells contained biochemical fractions, peptides, or reaction mixtures. Synthetic peptides (>95%) were obtained from CHI Scientific.
(§2) For the synthesis of a HIP peptide through chemical crosslinking of an N-terminally acetylated “left peptide” and an unmodified “right peptide”, a two-step crosslinking procedure was adopted. To ensure water solubility of peptides, “left peptides” (>85%, CHI-Scientific) were N-terminally extended and “right peptides” (>85%, CHI-Scientific) were C-terminally extended through the addition of two arginine residues separated by an alanine residue from the core amino acid sequences. A total of 10 μl “left peptide” (10 mM: SEQ ID NO: 177 Acetyl-RRAHLVEAL. SEQ ID NO: 178 Acetyl-RRALVEALY, SEQ ID NO: 179 Acetyl-RRAVEALYL, SEQ ID NO. 180 Acetyl-RRAGDLQTL, SEQ ID NO: 181 Acetyl-RRADLQTLA, SEQ ID NO: 182 Acetyl-RRALQTLAL, SEQ ID NO: 183 Acetyl-RRAQTLALE, or SEQ ID NO: 184 Acetyl-RRATLALEV) was added to 74.5 μl reaction buffer (20 mM MES, 150 mM NaCl) in a 1.5 ml eppendorf tube, followed by the addition of a carbodiimide, such as, for example, 1.5 μl freshly prepared 500 mM 1-Ethyl-3-[3-dimethylaminopropyl]carbodiimide hydrochloride (EDC) and 1.5 μl 1000 mM N-hydroxysuccinimide (NHS). After 15 min of incubation at room temperature, a reducing agent was added, for example, […] of DTT (1000 mM) were added to quench residual EDC. Following another 15 min of incubation at room temperature, […] of “right peptide” (10 mM: SEQ ID NO: 185 KCNTATARR, SEQ ID NO: 186 NAARDPARR, SEQ ID NO: 187 TPVRSGTARR, or SEQ ID NO: 188 WSRMDARR) were added. Reaction mixtures were incubated for 16 h at 37° C., prior to the direct addition of […] to the T cell assay plates (see for example U.S. Pat. No. 5,589,458). ELISA was used to measure IFN-gamma T cell responses to individual HIP reaction mixtures. For each T cell clone, the ELISA absorbance values to all peptides were averaged and the standard deviation was calculated. If the absorbance value toward an individual HIP was three times the standard deviation (3×sd) above the average signal, the response toward the peptide was classified as positive.

[2] = tested on: T cell clone BDC-9.3; conditions: for T cell recognition/activation by HIP sequence (IFN-gamma response): BDC-9.3, synthetic HIP library screen (FIG. 2E); for IFN-gamma T cell response to peptides: BDC-9.3, exemplifying the IAPP-reactive clones, synthetic peptides, FIG. 4B
Method: as §1, §2

[3] = tested on: CD4 T cell clone BDC-2.5; conditions: for T cell recognition/activation by HIP sequence (IFN-gamma response): BDC-2.5, synthetic HIP library screen, positive if ELISA absorbance 3×sd above average (FIG. 2B); for IFN-gamma T cell response to peptides: BDC-2.5, illustrating the WE14-reactive clones, synthetic peptides, FIG. 4A
Method: as §1, §2

[4] = tested on: CD4 T cell clone BDC-9.46; conditions: synthetic HIP library screen (FIG. 2D)
Method: as §1, §2

[5] = tested on: CD4 T cell clone BDC-10.1; conditions: synthetic HIP library screen (FIG. 2C)
Method: as §1, §2

DLQTLALNAAR [Sequence 2] was tested. Which “T cell recognition/activation by HIP sequence (IFN-gamma response)” value (from here on “T cell recognition/activation”) [1] did it give?
The value was “recognized”.

And the “T cell recognition/activation” value [2]?
The value was “recognized”.

What does the source list for DLQTLALWSRM [Sequence 1]?
T cell recognition/activation by HIP sequence (IFN-gamma response) [3]: recognized; T cell recognition/activation by HIP sequence (IFN-gamma response) [4]: recognized; T cell recognition/activation by HIP sequence (IFN-gamma response) [5]: recognized

With “IAPP2-HIP: HIP spanning full-length Ins2 C-Peptide fragment ending in LQTLAL on the N-terminal side and the entire IAPP2 sequence on the C-terminal side (EVEDPQVAQLELGGGPGAGDLQTLALNAAGDPNRESLDFLLV)” as the substance, how does the “IFN-gamma T cell response to peptides” value [1] read?
Its value is “low nanomolar concentrations”.

And the “IFN-gamma T cell response to peptides” value [2]?
The value was “low nanomolar concentrations”.

What does the source list for “IAPP2: IAPP propeptide 2, naturally occurring cleavage product found in secretory granules of β-cells (NAAGDPNRESLDFLLV)”?
IFN-gamma T cell response to peptides [1]: Neither BDC-9.3 nor BDC-6.9 recognize; IFN-gamma T cell response to peptides [2]: Neither BDC-9.3 nor BDC-6.9 recognize; also recorded: not responsive

What does the source list for LQTLALNAARD [SEQ ID NO: 197]?
T cell recognition/activation by HIP sequence (IFN-gamma response) [1]: recognized; T cell recognition/activation by HIP sequence (IFN-gamma response) [2]: recognized

LQTLALWSRMD [SEQ ID NO: 199] was tested. Which “T cell recognition/activation” value [3] did it give?
Its value is “activate”.

And the “T cell recognition/activation” value [4]?
Its value is “activate”.

And the “T cell recognition/activation” value [5]?
The value was “activate”.

With “WE14-HIP: HIP spanning full-length Ins2 C-Peptide fragment ending in LQTLAL on the N-terminal side and the entire WE14 sequence on the C-terminal side (EVEDPQVAQLELGGGPGAGDLQTLALWSRMDQLAKELTAE)” as the substance, how does the “IFN-gamma T cell response to peptides” value [3] read?
Its value is “low nanomolar concentrations”.

With “WE14: naturally occurring peptide cleavage product of chromogranin A (ChgA) (WSRMDQLAKELTAE)” as the substance, how does the “IFN-gamma T cell response to peptides” value [3] read?
Its value is “weakly antigenic; also recorded: poorly antigenic; also recorded: high concentrations”.

For “insulin 2 C-peptide fragment ending with the amino acid sequence SEQ ID NO: 192 DLQTLAL: insulin 2 C-peptide fragment ending with DLQTLAL (EVEDPQVAQLELGGGPGAGDLQTLAL)”, which “IFN-gamma T cell response to peptides” value [3] is on record?
The value was “None of the clones respond”.

What about the “IFN-gamma T cell response to peptides” value [2] of the same substance?
The value was “None of the clones respond”.

How did the “IFN-gamma T cell response to peptides” value [3] turn out when “insulin 2 C-peptide: full length mouse insulin 2 C-peptide (EVEDPQVAQLELGGGPGAGDLQTLALEVAQQ)” was run?
The value was “None of the clones respond”.

And the “IFN-gamma T cell response to peptides” value ([3]; listed as Ins2 C-Peptide)?
Its value is “None of the clones respond”.

And the “IFN-gamma T cell response to peptides” value ([3]; listed as insulin C-peptide)?
Its value is “none of the WE14-reactive T cell clones recognize”.

What about the “IFN-gamma T cell response to peptides” value [2] of the same substance?
The value was “None of the clones respond”.
